Results taken from patent US9693556B2, “Herbicidal pyridazinone derivatives” (SYNGENTA LIMITED, priority 2011, dated 2017).

Tests used:
Format in all cases: in vivo
[1] = system: Amaranthus retoflexus (AMARE); experiment: Post-emergence herbicidal glasshouse test on Amaranthus retoflexus; settings: post-emergence; 1000 g/h; evaluated after 13 days
Method in brief: (§1)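 Plants sprayed 1 day (pre-emergence) or 8 days (post-emergence) after sowing with compound at 1000 g/h in acetone/water 50:50 with 0.5% Tween 20; glasshouse 24/16° C, 14 h light, 65% humidity. Damage assessed after 13 days, scored 1–5 (5 = 80-100%, 1 = 0-19%).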

[2] = system: Alopecurus myosuroides (ALOMY); experiment: Pre-emergence herbicidal glasshouse test on Alopecurus myosuroides; settings: pre-emergence; 1000 g/h; evaluated after 13 days
Method in brief: as §1

Setaria faberi (SETFA) [3] = experiment: Post-emergence herbicidal glasshouse test on Setaria faberi; settings: post-emergence; 1000 g/h; evaluated after 13 days
Method in brief: as §1

Setaria faberi (SETFA) [4] = experiment: Pre-emergence herbicidal glasshouse test on Setaria faberi; settings: pre-emergence; 1000 g/h; evaluated after 13 days
Method in brief: as §1

[5] = system: Ipomoea hederacea (IPOHE); experiment: Post-emergence herbicidal glasshouse test on Ipomoea hederacea; settings: post-emergence; 1000 g/h; evaluated after 13 days
Method in brief: as §1

Solanum nigrum (SOLNI) [6] = experiment: Pre-emergence herbicidal glasshouse test on Solanum nigrum; settings: pre-emergence; 1000 g/h; evaluated after 13 days
Method in brief: as §1

[7] = system: Echinochloa crus-galli (ECHCG); experiment: Pre-emergence herbicidal glasshouse test on Echinochloa crus-galli; settings: pre-emergence; 1000 g/h; evaluated after 13 days
Method in brief: as §1

[8] = system: Echinochloa crus-galli (ECHCG); experiment: Post-emergence herbicidal glasshouse test on Echinochloa crus-galli; settings: post-emergence; 1000 g/h; evaluated after 13 days
Method in brief: as §1

[9] = system: Alopecurus myosuroides (ALOMY); experiment: Post-emergence herbicidal glasshouse test on Alopecurus myosuroides; settings: post-emergence; 1000 g/h; evaluated after 13 days
Method in brief: as §1

[10] = system: Ipomoea hederacea (IPOHE); experiment: Pre-emergence herbicidal glasshouse test on Ipomoea hederacea; settings: pre-emergence; 1000 g/h; evaluated after 13 days
Method in brief: as §1

[11] = system: Amaranthus retoflexus (AMARE); experiment: Pre-emergence herbicidal glasshouse test on Amaranthus retoflexus; settings: pre-emergence; 1000 g/h; evaluated after 13 days
Method in brief: as §1

Solanum nigrum (SOLNI) [12] = experiment: Post-emergence herbicidal glasshouse test on Solanum nigrum; settings: post-emergence; 1000 g/h; evaluated after 13 days
Method in brief: as §1

Structure (SMILES)	POST Application AMARE herbicidal damage (five point scale) [1]	PRE Application ALOMY herbicidal damage (five point scale) [2]	POST Application SETFA herbicidal damage (five point scale) (Setaria faberi (SETFA) [3])	PRE Application SETFA herbicidal damage (five point scale) (Setaria faberi (SETFA) [4])	POST Application IPOHE herbicidal damage (five point scale) [5]	PRE Application SOLNI herbicidal damage (five point scale) (Solanum nigrum (SOLNI) [6])	PRE Application ECHCG herbicidal damage (five point scale) [7]	POST Application ECHCG herbicidal damage (five point scale) [8]	POST Application ALOMY herbicidal damage (five point scale) [9]	PRE Application IPOHE herbicidal damage (five point scale) [10]	PRE Application AMARE herbicidal damage (five point scale) [11]	POST Application SOLNI herbicidal damage (five point scale) (Solanum nigrum (SOLNI) [12])
Cn1ncc(-c2ccc(Cl)cc2[S+](C)[O-])c(O)c1=O (stereo not drawn) [Compound 1.059]	5 (5=80-100% damage)	5 (5=80-100% damage)	5 (5=80-100% damage)	5 (5=80-100% damage)	5 (5=80-100% damage)	5 (5=80-100% damage)	5 (5=80-100% damage)	5 (5=80-100% damage)	5 (5=80-100% damage)	5 (5=80-100% damage)	5 (5=80-100% damage)	5 (5=80-100% damage)
CCS(=O)(=O)c1ccccc1-c1cnn(COC)c(=O)c1O [Compound 2.004]	5 (5=80-100% damage)	5 (5=80-100% damage)	5 (5=80-100% damage)	5 (5=80-100% damage)	5 (5=80-100% damage)	5 (5=80-100% damage)	5 (5=80-100% damage)	5 (5=80-100% damage)	3 (3=40-59% damage)	4 (4=60-79% damage)	5 (5=80-100% damage)	5 (5=80-100% damage)
COc1cccc(-c2c(C(F)(F)F)ccn(-c3cnn(C)c(=O)c3O)c2=O)c1 [Compound 7.003]	5 (5=80-100% damage)	4 (4=60-79% damage)	3 (3=40-59% damage)	4 (4=60-79% damage)	3 (3=40-59% damage)	5 (5=80-100% damage)	4 (4=60-79% damage)	5 (5=80-100% damage)	4 (4=60-79% damage)	3 (3=40-59% damage)	5 (5=80-100% damage)	5 (5=80-100% damage)
CS(=O)(=O)c1cc(C(F)(F)F)ccc1-c1cnn(C2CC2)c(=O)c1O [Compound 2.015]	5 (5=80-100% damage)	5 (5=80-100% damage)	5 (5=80-100% damage)	5 (5=80-100% damage)	5 (5=80-100% damage)	5 (5=80-100% damage)	5 (5=80-100% damage)	5 (5=80-100% damage)	5 (5=80-100% damage)	5 (5=80-100% damage)	5 (5=80-100% damage)	5 (5=80-100% damage)
